Source: US8563714B2, “Bridged spiro [2.4] heptane derivatives as ALX receptor and/or FPRL2 agonists” (Actelion Pharmaceuticals Ltd., priority 2009, dated 2013)

Experiments:
human FPRL2 = molecular target: T1, human FPRL2 (Homo sapiens, UniProt P25089); assay: Intracellular calcium measurements (FLIPR), agonistic activity in HEK293-hFPRL2-Gα16 cells; format: cell-based; details: Fluo-4 calcium FLIPR, normalized to GLY14-Humanin 100 nM
T1 construct: expressed in transfected cells; host or cells: HEK293 (HEK293-hFPRL2-Gα16)
T1 sequence (P25089 1-353): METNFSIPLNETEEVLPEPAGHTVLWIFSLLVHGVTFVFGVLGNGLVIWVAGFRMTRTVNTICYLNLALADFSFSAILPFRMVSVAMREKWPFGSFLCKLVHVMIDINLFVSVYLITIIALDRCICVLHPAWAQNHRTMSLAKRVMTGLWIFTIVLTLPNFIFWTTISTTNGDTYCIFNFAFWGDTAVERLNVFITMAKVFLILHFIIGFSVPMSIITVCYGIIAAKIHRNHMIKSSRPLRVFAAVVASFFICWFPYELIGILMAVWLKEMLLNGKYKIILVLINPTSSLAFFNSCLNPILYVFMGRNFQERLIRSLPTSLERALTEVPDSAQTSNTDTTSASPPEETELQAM
Summary of the method: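 Peak values after baseline subtraction are expressed relative to 100 nM Gly14-Humanin; compounds diluted in assay buffer from 10 mM DMSO stocks.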

human ALX receptor = molecular target: T2, human ALX receptor (Homo sapiens, UniProt P25090); assay: Intracellular calcium measurements (FLIPR), agonistic activity in HEK293-hALXR-Gα16 cells; format: cell-based; details: Fluo-4 calcium FLIPR, normalized to WKYMVm 10 nM
T2 construct: expressed in transfected cells; host or cells: HEK293 (HEK293-hALXR-Gα16)
T2 sequence (P25090 1-351): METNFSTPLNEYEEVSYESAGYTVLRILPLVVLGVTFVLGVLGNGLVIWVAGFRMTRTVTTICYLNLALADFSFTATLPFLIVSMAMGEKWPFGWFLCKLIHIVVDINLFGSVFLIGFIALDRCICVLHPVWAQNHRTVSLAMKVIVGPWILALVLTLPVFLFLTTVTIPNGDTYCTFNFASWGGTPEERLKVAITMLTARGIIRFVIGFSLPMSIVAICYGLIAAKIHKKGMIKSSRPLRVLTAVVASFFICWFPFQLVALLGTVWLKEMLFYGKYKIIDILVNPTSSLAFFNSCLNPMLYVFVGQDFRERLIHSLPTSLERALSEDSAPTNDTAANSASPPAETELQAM
Summary of the method: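 HEK293 cells expressing hALXR and Gα16 were loaded with 1 μM Fluo-4 AM and 20 mM HEPES for 60 min at 37°C, then exposed to serially diluted compound. FLIPR fluorescence was read at ex 488/em 540 nm. Baseline-subtracted peak responses were normalized to 10 nM WKYMVm.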

Row | EC50 (human FPRL2) [nM] | EC50 (human ALX receptor) [nM] | Structure (SMILES)
1 | 10000 | 96 | O=C(NCCCO)[C@H]1[C@H](C(=O)Nc2ncc(Br)s2)[C@@H]2CC[C@H]1C21CC1 [Example 404, (5R)—N^5-(5-Bromothiazol-2-yl)-(6R)—N^6-(3-hydroxypropyl)-(4S,7R)-[4,7-ethylene-spiro[2.4]heptane]-5,6-dicarboxamide]
2 | 7840 | 80 | O=C(NCCCCO)[C@H]1[C@H](C(=O)Nc2ncc(Br)s2)[C@@H]2CC[C@H]1C21CC1 [Example 405, (5R)—N^5-(5-Bromothiazol-2-yl)-(6R)—N^6-(4-hydroxybutyl)-(4S,7R)-[4,7-ethylene-spiro[2.4]heptane]-5,6-dicarboxamide]
3 | 15200 | 333 | CC(C)(CO)NC(=O)[C@H]1[C@H](C(=O)Nc2ncc(Br)s2)[C@@H]2CC[C@H]1C21CC1 [Example 406, (5R)—N^5-(5-Bromothiazol-2-yl)-(6R)—N^6-(2-methyl-3-hydroxyprop-2-yl)-(4S,7R)-[4,7-ethylene-spiro[2.4]heptane]-5,6-dicarboxamide]
4 | 9230 | 11 | O=C(NCCOCCO)[C@H]1[C@H](C(=O)Nc2ncc(Br)s2)[C@@H]2CC[C@H]1C21CC1 [Example 407, (5R)—N^5-(5-Bromothiazol-2-yl)-(6R)—N^6-(2-(2-hydroxyethoxy)ethyl)-(4S,7R)-[4,7-ethylene-spiro[2.4]heptane]-5,6-dicarboxamide]
5 | 16300 | 69 | O=C(N[C@H]1CC[C@H](O)CC1)[C@H]1[C@H](C(=O)Nc2ncc(Br)s2)[C@@H]2CC[C@H]1C21CC1 [Example 408, (5R)—N^5-(5-Bromothiazol-2-yl)-(6R)—N^6-(4-hydroxy-cyclohexyl)-(4S,7R)-[4,7-ethylene-spiro[2.4]heptane]-5,6-dicarboxamide]
6 | 9190 | 129 | O=C(NCC1(O)CCCCC1)[C@H]1[C@H](C(=O)Nc2ncc(Br)s2)[C@@H]2CC[C@H]1C21CC1 [Example 409, (5R)—N^5-(5-Bromothiazol-2-yl)-(6R)—N^6-[(1-hydroxy-cyclohexyl)methyl]-(4S,7R)-[4,7-ethylene-spiro[2.4]heptane]-5,6-dicarboxamide]
7 | 1020 | 8.9 | O=C(Nc1ncc(Br)s1)C1C(C(=O)NC2CCNC2)C2CCC1C21CC1 [Example 412, (5R)—N^5-(5-Bromothiazol-2-yl)-(6R)—N^6-(pyrrolidin-3-yl)-(4S,7R)-[4,7-ethylene-spiro[2.4]heptane]-5,6-dicarboxamide]
8 | 2110 | 13 | CNCCNC(=O)[C@H]1[C@H](C(=O)Nc2ncc(Br)s2)[C@@H]2CC[C@H]1C21CC1 [Example 413, (5R)—N^5-(5-Bromothiazol-2-yl)-(6R)—N^6-(2-(N-methylamino)-ethyl)-(4S,7R)-[4,7-ethylene-spiro[2.4]heptane]-5,6-dicarboxamide]
9 | 773 | 14 | CNCCCNC(=O)[C@H]1[C@H](C(=O)Nc2ncc(Br)s2)[C@@H]2CC[C@H]1C21CC1 [Example 414, (5R)—N^5-(5-Bromothiazol-2-yl)-(6R)—N^6-(3-(N-methylamino)-propyl)-(4S,7R)-[4,7-ethylene-spiro[2.4]heptane]-5,6-dicarboxamide]
10 | 354 | 9.1 | O=C(NC1CCCNC1)[C@H]1[C@H](C(=O)Nc2ncc(Br)s2)[C@@H]2CC[C@H]1C21CC1 (stereo partly drawn) [Example 415, (5R)—N^5-(5-Bromothiazol-2-yl)-(6R)—N^6-(piperidin-3-yl)-(4S,7R)-[4,7-ethylene-spiro[2.4]heptane]-5,6-dicarboxamide]

The next lines start with the compound.

Row | Structure (SMILES) | EC50 (human FPRL2) [nM] | EC50 (human ALX receptor) [nM]
11 | NS(=O)(=O)c1ccc(CCNC(=O)[C@H]2[C@H](C(=O)NCCc3ccc(Cl)cc3)[C@@H]3C=C[C@H]2C32CC2)cc1 [Example 390, (5R)—N^5-(2-(4-Chlorophenyl)ethyl)-(6R)—N^6-(2-(4-aminosulfonyl-phenyl)-ethyl)-(4S,7R)-[4,7-ethenylene-spiro[2.4]heptane]-5,6-dicarboxamide] | 576 | > 25000
12 | O=C(NCCCCN1CCCC1)[C@H]1[C@H](C(=O)NCCc2ccc(Cl)cc2Cl)[C@@H]2C=C[C@H]1C21CC1 [Example 391, (5R)—N^5-(2-(2,4-Dichlorophenyl)ethyl)-(6R)—N^6-(4-pyrrolidino-butyl)-(4S,7R)-[4,7-ethenylene-spiro[2.4]heptane]-5,6-dicarboxamide] | 3.8 | 9710
13 | CC(C)CCN1CCC(NC(=O)[C@H]2[C@H](C(=O)NCCc3ccc(Cl)cc3)[C@@H]3C=C[C@H]2C32CC2)CC1 [Example 392, (5R)—N^5-(2-(4-Chlorophenyl)ethyl)-(6R)—N^6—(N-isopentyl-piperidin-4-yl)-(4S,7R)-[4,7-ethenylene-spiro[2.4]heptane]-5,6-dicarboxamide] | 20 | 10400
14 | O=C(NCCCCN1CCCC1)[C@H]1[C@H](C(=O)Nc2cc(F)c(Br)c(F)c2)[C@@H]2C=C[C@H]1C21CC1 [Example 393, (5R)—N^5-(4-Bromo-3,5-difluorophenyl)-(6R)—N^6-(4-pyrrolidino-butyl)-(4S,7R)-[4,7-ethenylene-spiro[2.4]heptane]-5,6-dicarboxamide] | 16 | 1190
15 | O=C(NCCCCN1CCCC1)[C@H]1[C@H](C(=O)Nc2nc(Br)cs2)[C@@H]2C=C[C@H]1C21CC1 [Example 394, (5R)—N^5-(4-Bromo-thiazol-2-yl)-(6R)—N^6-(4-pyrrolidino-butyl)-(4S,7R)-[4,7-ethenylene-spiro[2.4]heptane]-5,6-dicarboxamide] | 166 | 1550
16 | O=C(NCCCCN1CCCC1)[C@H]1[C@H](C(=O)Nc2ccc(Br)c(C(F)(F)F)c2)[C@@H]2C=C[C@H]1C21CC1 [Example 395, (5R)—N^5-(4-Bromo-3-trifluoromethylphenyl)-(6R)—N^6-(4-pyrrolidino-butyl)-(4S,7R)-[4,7-ethenylene-spiro[2.4]heptane]-5,6-dicarboxamide] | 13 | 3800
17 | CC1CCC(C)N1CCCCNC(=O)[C@H]1[C@H](C(=O)Nc2ccc(Br)cc2)[C@@H]2C=C[C@H]1C21CC1 (stereo partly drawn) [Example 397, (5R)—N^5-(4-Bromophenyl)-(6R)—N^6-(4-(2,5-dimethylpyrrolidin-1-yl)butyl)-(4S,7R)-[4,7-ethenylene-spiro[2.4]heptane]-5,6-dicarboxamide] | 149 | 2.1
18 | CC(CCCNC(=O)[C@H]1[C@H](C(=O)Nc2ccc(Br)cc2)[C@@H]2C=C[C@H]1C21CC1)N1CCCC1 (stereo partly drawn) [Example 398, (5R)—N^5-(4-Bromophenyl)-(6R)—N^6-(4-(pyrrolidin-1-yl)pentyl)-(4S,7R)-[4,7-ethenylene-spiro[2.4]heptane]-5,6-dicarboxamide] | 7510 | 1.8
19 | O=C(NCCC(F)CN1CCCC1)[C@H]1[C@H](C(=O)Nc2ccc(Br)cc2)[C@@H]2C=C[C@H]1C21CC1 (stereo partly drawn) [Example 399, (5R)—N^5-(4-Bromophenyl)-(6R)—N^6-(3-fluoro-4-(pyrrolidin-1-yl)butyl)-(4S,7R)-[4,7-ethenylene-spiro[2.4]heptane]-5,6-dicarboxamide] | 4770 | 5
20 | COCC1CCCN1CCCCNC(=O)[C@H]1[C@H](C(=O)Nc2ccc(Br)cc2)[C@@H]2C=C[C@H]1C21CC1 (stereo partly drawn) [Example 400, (5R)—N^5-(4-Bromophenyl)-(6R)—N^6-(4-(2-(methoxymethyl)pyrrolidin-1-yl)butyl)-(4S,7R)-[4,7-ethenylene-spiro[2.4]heptane]-5,6-dicarboxamide] | 7650 | 1.4
21 | O=C(NCCCCN1CCC(F)(F)C1)[C@H]1[C@H](C(=O)Nc2ccc(Br)cc2)[C@@H]2C=C[C@H]1C21CC1 [Example 401, (5R)—N^5-(4-Bromophenyl)-(6R)—N^6-(4-(3,3-difluoropyrrolidin-1-yl)butyl)-(4S,7R)-[4,7-ethenylene-spiro[2.4]heptane]-5,6-dicarboxamide] | 516 | 4.4
22 | O=C(NCCCCN1CCCC1)[C@H]1[C@H](C(=O)Nc2cnc(Br)c(F)c2)[C@@H]2CC[C@H]1C21CC1 [Example 402, (5R)—N^5-(2-Bromo-3-fluoro-pyridin-5-yl)-(6R)—N^6-(4-pyrrolidino-butyl)-(4S,7R)-[4,7-ethylene-spiro[2.4]heptane]-5,6-dicarboxamide] | 66 | 349
23 | O=C(NCCO)[C@H]1[C@H](C(=O)Nc2ncc(Br)s2)[C@@H]2CC[C@H]1C21CC1 [Example 403, (5R)—N^5-(5-Bromothiazol-2-yl)-(6R)—N^6-(2-hydroxyethyl)-(4S,7R)-[4,7-ethylene-spiro[2.4]heptane]-5,6-dicarboxamide] | 21400 | 158
